Reference: paper PMC4690121, “Interaction of Citrinin with Human Serum Albumin” (Toxins, 2015)
Like-named read-outs stand apart in the source and are kept apart here.

Key:
[1] = target: T1, bovine serum albumin (BSA) (Bos taurus, UniProt P02769); experiment: Fluorescence quenching of albumin by CIT, binding constant; conditions: PBS pH 7.4, 25 °C; read-out: logK (±SD) of CIT-BSA complex (converted)
T1 construct: purchased Sigma-Aldrich
Protocol: (§1) A Fluorolog τ3 spectrofluorometric system (Jobin-Yvon/SPEX) and Hitachi F-4500 fluorescence spectrophotometer were used for steady-state fluorescence and fluorescence polarization measurements. All analyses were performed at +25 °C except thermodynamic studies.
(§2) Binding constants (K) were determined using fluorescence quenching method, where increasing CIT concentrations (0–5 μM) were added to standard amount of albumin (2 μM). Fluorescence emission spectra were recorded in PBS buffer (pH 7.4; λexc = 280 nm). Similarly to our previous studies, K values of CIT-albumin complexes were quantified by non-linear fitting with Hyperquad2006 program package (Protonic Software) assuming 1:1 stoichiometry: (1) I=I0+IAC−I0/2[A]0([A]0+[C]0+1/K−([A]0+[C]0+1/K)^2−4[A]0[C]0) where I denotes the fluorescence emission intensity of albumin in presence of CIT; I0 denotes the fluorescence emission intensity of albumin in absence of CIT; IAC denotes the fluorescence emission intensity of pure albumin-CIT complex (which is calculated by the Hyperquad2006 software); K denotes the binding constant; while [A]0 and [C]0 denote the total concentrations of albumin and CIT, respectively.

[2] = target: T2, porcine serum albumin (PSA) (Sus scrofa, UniProt P08835); experiment: as above; conditions: PBS pH 7.4, 25 °C; read-out: logK (±SD) of CIT-PSA complex (converted)
T2 construct: purchased Sigma-Aldrich
T2 sequence (P08835 25-607): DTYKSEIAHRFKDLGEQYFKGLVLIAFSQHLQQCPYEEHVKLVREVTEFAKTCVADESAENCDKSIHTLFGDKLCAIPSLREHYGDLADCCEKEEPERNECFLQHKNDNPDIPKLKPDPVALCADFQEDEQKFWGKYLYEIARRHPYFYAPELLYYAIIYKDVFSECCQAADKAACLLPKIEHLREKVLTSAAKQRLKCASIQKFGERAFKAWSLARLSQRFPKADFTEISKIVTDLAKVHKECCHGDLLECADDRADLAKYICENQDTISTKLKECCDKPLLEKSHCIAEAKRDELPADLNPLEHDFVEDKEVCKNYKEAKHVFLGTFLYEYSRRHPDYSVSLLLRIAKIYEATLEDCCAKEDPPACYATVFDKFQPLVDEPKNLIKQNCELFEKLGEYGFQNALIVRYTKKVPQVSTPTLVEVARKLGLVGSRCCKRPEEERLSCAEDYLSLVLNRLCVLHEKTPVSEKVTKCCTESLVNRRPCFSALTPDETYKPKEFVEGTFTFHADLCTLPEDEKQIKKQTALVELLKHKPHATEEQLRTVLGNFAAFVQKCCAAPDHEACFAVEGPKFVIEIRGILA
Protocol: as §1, §2

[3] = target: T3, rat serum albumin (RSA) (Rattus norvegicus, UniProt P02770); experiment: as above; conditions: PBS pH 7.4, 25 °C; read-out: logK (±SD) of CIT-RSA complex (converted)
T3 construct: purchased Sigma-Aldrich
T3 sequence (P02770 25-608): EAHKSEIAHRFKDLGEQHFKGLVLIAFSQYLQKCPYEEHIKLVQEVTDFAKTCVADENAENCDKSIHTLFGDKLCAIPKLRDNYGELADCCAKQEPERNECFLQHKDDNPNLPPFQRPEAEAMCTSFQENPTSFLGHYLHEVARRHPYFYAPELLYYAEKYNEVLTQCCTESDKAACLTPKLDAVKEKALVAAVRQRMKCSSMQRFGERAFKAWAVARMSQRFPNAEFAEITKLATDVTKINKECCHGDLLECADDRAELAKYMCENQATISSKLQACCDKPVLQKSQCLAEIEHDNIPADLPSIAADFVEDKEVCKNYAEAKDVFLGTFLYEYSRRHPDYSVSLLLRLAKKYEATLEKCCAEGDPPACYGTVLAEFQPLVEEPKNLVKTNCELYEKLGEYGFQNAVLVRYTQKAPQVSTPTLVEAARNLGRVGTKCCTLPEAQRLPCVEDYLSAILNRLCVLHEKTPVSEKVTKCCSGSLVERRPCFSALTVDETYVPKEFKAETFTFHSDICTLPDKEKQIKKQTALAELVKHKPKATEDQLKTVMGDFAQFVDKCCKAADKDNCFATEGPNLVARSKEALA
Protocol: as §1, §2

[4] = target: T4, human serum albumin (HSA) (Homo sapiens, UniProt P02768)
T4 sequence (P02768 25-609): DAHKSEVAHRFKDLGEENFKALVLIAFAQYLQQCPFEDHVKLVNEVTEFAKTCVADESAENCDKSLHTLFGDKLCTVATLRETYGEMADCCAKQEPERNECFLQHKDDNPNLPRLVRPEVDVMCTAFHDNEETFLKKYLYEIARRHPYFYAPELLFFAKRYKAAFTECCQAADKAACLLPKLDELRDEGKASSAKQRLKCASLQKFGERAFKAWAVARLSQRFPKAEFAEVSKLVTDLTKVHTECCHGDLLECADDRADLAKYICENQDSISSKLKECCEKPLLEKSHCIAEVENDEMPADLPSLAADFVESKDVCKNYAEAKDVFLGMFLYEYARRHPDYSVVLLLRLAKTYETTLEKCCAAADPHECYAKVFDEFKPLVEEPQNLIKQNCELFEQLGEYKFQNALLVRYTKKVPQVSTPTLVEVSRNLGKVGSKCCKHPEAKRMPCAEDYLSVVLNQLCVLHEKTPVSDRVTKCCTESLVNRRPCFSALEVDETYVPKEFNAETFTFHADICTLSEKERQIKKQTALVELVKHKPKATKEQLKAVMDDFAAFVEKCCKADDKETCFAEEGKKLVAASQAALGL
Protocol: Before ultrafiltration samples contained 1 μM CIT with or without HSA (1, 2.5 or 5 μM), while displacement of CIT by WAR (5 and 10 μM) or OTA (2.5 and 5 μM) was investigated in the presence of 1 μM CIT and 5 μM HSA. During ultrafiltration experiments Amicon Ultra-4 centrifugal filter units (with 10 kDa molecular weight cut-off value; from Merck Millipore, Darmstadt, Germany) were applied. In order to remove glycerol from the filters, filter units were washed with 3 mL water and 3 mL PBS. Thereafter, 2.5 mL of the samples were transferred into the filter and Amicon tubes were centrifuged at 7500 g for 10 min at 25 °C (in Hettich Universal 32R centrifuge with fixed-angle rotor). Then 2 mL quantity of filtrate was transferred into 5-mL Eppendorf tube, after which 10 μL 6 M HCl solution was added to the sample in order to adjust the pH (to approximately 2). […] Final CIT concentrations were determined (applying calibration curve at concentration range 0.1–2.0 μM) by Hitachi F-4500 fluorescence spectrophotometer with the measurement of the fluorescence signal of CIT itself, using 330 nm and 500 nm as excitation and emission wavelengths, respectively.

[5] = system: MDCK cells; experiment: MDCK cell viability (calcein acetoxymethyl ester); type: cell-based; conditions: 24 h
Protocol: MDCK (immortalized, epithelial-kidney, ATCC: CCL 34) cells were cultured in DMEM containing FBS (10%), penicillin (100 U/mL) and streptomycin (100 μg/mL), in 25 cm^2 sterile plastic flasks (VWR) and in 24-well sterile plastic plates (VWR). In order to test the effect of CIT on cell viability in absence and presence of albumin, cell media with and without 10% FBS or 40 g/L HSA were also prepared. After 24-h treatment of MDCK cells (in 24-well plates) with CIT (0–100 μM) in absence and presence of FBS (10%) or HSA (40 g/L), cells were washed three times with 500 μL PBS. Then PBS was replaced with 500 µL Hanks + glucose buffer containing 1.6 µM calcein acetoxymethyl ester and cells were incubated for 40 min at 37 °C in the dark. Thereafter, wells were washed again with 500 μL ice-cold PBS and the emptied wells were filled with 500 μL of 5% perchloric acid (PCA) after which cells were incubated for 15 min at room temperature. 20 μL PCA extract was added to 180 μL of 1 M NaOH using black 96-well optical plates (VWR) for fluorescence measurement of the formed calcein (λexc = 490 nm, λem = 520 nm). Fluorescence intensities were measured with a microplate reader (Perkin Elmer EnSpire Multimode reader).

[6] = target: T4, human serum albumin (HSA); experiment: Fluorescence quenching of albumin by CIT, binding constant and van't Hoff thermodynamics; design: purchased Sigma-Aldrich
Protocol: as §1
as §2, with “Fluorescence emission spectra were recorded in PBS buffer (pH 7.4; λexc = 280 nm).” left out
To get deeper insight into the formation of CIT-HSA complex, quenching experiments were also performed at different temperatures (25, 30, 35, and 40 °C). Thermodynamic parameters were quantified applying the van’t Hoff equation: (2) lnK=−ΔG/RT=−ΔH/RT+ΔS/R where ΔG is the Gibbs free energy change, ΔS is the entropy change, while ΔH is the enthalpy change associated with the complex formation.

[7] = target: T4, human serum albumin (HSA); experiment: Steady-state fluorescence displacement of warfarin from HSA by CIT; type: binding; design: purchased Sigma-Aldrich; conditions: warfarin 1 μM, HSA 3.5 μM, CIT 0.25–5.0 μM
[8] = target: T4, human serum albumin (HSA); experiment: Fluorescence polarization displacement of OTA from HSA; type: binding; design: purchased Sigma-Aldrich; conditions: OTA 1 μM, HSA 1.4 μM, competitor 1–30 μM
[9] = target: T4, human serum albumin (HSA); conditions: cited from earlier work
[10] = van't Hoff, 25-40 °C quenching data

T1 sequence (P02769 25-607): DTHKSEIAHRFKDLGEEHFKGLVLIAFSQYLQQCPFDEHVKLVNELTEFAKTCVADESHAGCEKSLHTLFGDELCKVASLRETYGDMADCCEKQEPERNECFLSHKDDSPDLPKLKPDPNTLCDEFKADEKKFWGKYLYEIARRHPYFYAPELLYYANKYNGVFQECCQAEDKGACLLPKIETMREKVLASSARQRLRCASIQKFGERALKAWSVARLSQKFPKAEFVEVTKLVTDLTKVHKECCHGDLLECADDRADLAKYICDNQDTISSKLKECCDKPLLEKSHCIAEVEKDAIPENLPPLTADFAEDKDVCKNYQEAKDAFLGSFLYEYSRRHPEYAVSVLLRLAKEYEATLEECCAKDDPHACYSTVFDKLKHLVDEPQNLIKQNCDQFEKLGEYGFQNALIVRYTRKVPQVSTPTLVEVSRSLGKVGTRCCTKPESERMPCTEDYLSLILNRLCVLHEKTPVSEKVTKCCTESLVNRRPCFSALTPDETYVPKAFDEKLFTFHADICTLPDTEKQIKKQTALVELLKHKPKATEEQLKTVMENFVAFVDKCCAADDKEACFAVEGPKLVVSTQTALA

**Q.** What does the source list for CC1=C2C(=CO[C@H](C)[C@H]2C)C(O)=C(C(=O)O)C1=O [CIT, Citrinin]?
**A.** Kd [1]: 8.91 µM; Kd [2]: 11 µM; Kd [3]: 3.16 µM; CIT in the filtrate in presence of HSA ([4]; 1 μM CIT, HSA 1, 2.5 and 5 μM, 10 kDa cut-off): significant decrease; CIT-induced viability loss in presence of FBS ([5]; 100 μM CIT + 10% FBS): considerably alleviated; CIT-induced viability loss in presence of HSA ([5]; 100 μM CIT + 40 g/L HSA): considerably alleviated; decrease of cell viability ([5]; 100 μM CIT, absence of FBS): approximately 50%; Kd ([6]; PBS pH 6.0, 25 °C, read-out: logK of CIT-HSA complex (converted)): 5.62 µM; Kd ([6]; PBS pH 7.0, 25 °C, read-out: logK of CIT-HSA complex (converted)): 5.25 µM; Kd ([6]; PBS pH 7.4, 25 °C, read-out: logK (±SD) of CIT-HSA complex (converted)): 4.79 µM; Kd ([6]; PBS pH 7.4, 30 °C, read-out: logK (±SD) of CIT-HSA complex (converted)): 5.5 µM; Kd ([6]; PBS pH 7.4, 35 °C, read-out: logK (±SD) of CIT-HSA complex (converted)): 6.46 µM; Kd ([6]; PBS pH 7.4, 40 °C, read-out: logK (±SD) of CIT-HSA complex (converted)): 7.76 µM; Kd ([6]; PBS pH 7.8, 25 °C, read-out: logK of CIT-HSA complex (converted)): 7.59 µM; ∆H of CIT-HSA complex formation [6, 10]: -5.772 kcal/mol; ∆S of CIT-HSA complex formation [6, 10]: +20.90 J·mol^−1·K^−1; fluorescence intensity of HSA-bound warfarin (displacement of warfarin) [7]: significant decrease; fluorescence polarization of OTA (displacement of OTA) [8]: decrease of fluorescence polarization of OTA in a concentration dependent fashion

**Q.** Which “displacement of CIT from HSA” value ([4]; 1 μM CIT + 5 μM HSA, 5 μM OTA) does the source give for C[C@@H]1Cc2c(Cl)cc(C(=O)N[C@@H](Cc3ccccc3)C(=O)O)c(O)c2C(=O)O1 [OTA, ochratoxin A] here?
**A.** Its value is “almost complete displacement”.

**Q.** What about the “change of CIT concentration in the filtrate caused by the competitor” value ([4]; 1 μM CIT + 5 μM HSA, warfarin or ibuprofen 5 or 10 μM, OTA 2.5 and 5 μM) of the same compound?
**A.** Its value is “significant elevation”.

**Q.** And the “logK of OTA-HSA complex” value ([9]; 25 °C)?
**A.** The value was 7.4–7.6.

**Q.** And the “complex stability with HSA compared to BSA” value ([9]; HSA vs BSA)?
**A.** The value was 15 fold.

**Q.** What about the “complex stability with HSA compared to RSA” value ([9]; HSA vs RSA) of the same compound?
**A.** Its value is 30 fold.
